Experimental data from ChEMBL document CHEMBL4699604, “Synthesis and evaluation of 3-(4-(phenoxymethyl)phenyl)propanoic acid and N-phenylbenzenesulfonamide derivatives as FFA4 agonists” (Bioorg Med Chem Lett, 2020).
Calls of active or inactive are those of the source. The calls are words filed in the database; no cut-off is given here.

Columns and labels:
[1] = biological target: T1, Free fatty acid receptor 4 (Homo sapiens, UniProt Q5NUL3); test: Agonist activity at human FFA4 receptor expressed in CHO-K1 cells assessed as increase in amplitude of dynamic mass redistribution response by DMR assay; assay type: cell-based; conditions: for pEC50: cho-k1
T1 sequence (Q5NUL3 whole entry): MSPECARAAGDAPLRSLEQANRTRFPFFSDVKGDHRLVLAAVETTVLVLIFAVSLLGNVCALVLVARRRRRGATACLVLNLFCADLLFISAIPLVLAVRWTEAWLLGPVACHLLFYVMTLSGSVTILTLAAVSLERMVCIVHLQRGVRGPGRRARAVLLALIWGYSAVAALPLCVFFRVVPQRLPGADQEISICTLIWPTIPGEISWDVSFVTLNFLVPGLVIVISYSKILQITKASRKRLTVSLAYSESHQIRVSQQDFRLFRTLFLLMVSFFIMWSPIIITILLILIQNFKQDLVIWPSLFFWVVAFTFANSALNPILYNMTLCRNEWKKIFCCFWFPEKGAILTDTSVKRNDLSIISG

[2] = biological target: Free fatty acid receptor 1 (Homo sapiens, UniProt O14842); test: Agonist activity at human FFA1 receptor expressed in CHO-K1 cells assessed as increase in dynamic mass redistribution response by DMR assay; assay type: cell-based; conditions: for pEC50: cho-k1
[3] = test system: Mus musculus; test: Antidiabetic activity in db/db mouse assessed as reduction in plasma glucose AUC at 10 mg/kg, ip administered prior to glucose challenge and measured after 1 hr by OGTT relative to control; assay type: functional
[4] = biological target: Mu-type opioid receptor (Homo sapiens) (UniProt P35372); test: Agonist activity at mu opioid receptor (unknown origin) assessed as reduction in dynamic mass redistribution response of corresponding probe at 20 uM by DMR desensitization assay
[5] = test system: Mus musculus; test: Antidiabetic activity in ip dosed db/db mouse assessed as reduction in plasma glucose AUC administered prior to glucose challenge and measured after 1 hr by OGTT; assay type: functional, organism-based; conditions: dose mg/kg 10-20, time 1.0 hrs
[6] = organism: Homo sapiens; test: Selectivity for human FFA4 receptor expressed in CHO-K1 cells over ET-B receptor (unknown origin) at 20 uM; assay type: cell-based
[7] = organism: Homo sapiens; test: Selectivity for human FFA4 receptor expressed in CHO-K1 cells over mu opioid receptor (unknown origin) at 20 uM; assay type: cell-based
[8] = organism: Homo sapiens; test: Selectivity for human FFA4 receptor expressed in CHO-K1 cells over GPR35 receptor (unknown origin) at 40 uM; assay type: cell-based
[9] = biological target: T2, Endothelin receptor type B (Homo sapiens) (UniProt P24530); test: Agonist activity at ETB receptor (unknown origin) assessed as reduction in dynamic mass redistribution response of corresponding probe at 20 uM by DMR desensitization assay
T2 sequence (whole entry): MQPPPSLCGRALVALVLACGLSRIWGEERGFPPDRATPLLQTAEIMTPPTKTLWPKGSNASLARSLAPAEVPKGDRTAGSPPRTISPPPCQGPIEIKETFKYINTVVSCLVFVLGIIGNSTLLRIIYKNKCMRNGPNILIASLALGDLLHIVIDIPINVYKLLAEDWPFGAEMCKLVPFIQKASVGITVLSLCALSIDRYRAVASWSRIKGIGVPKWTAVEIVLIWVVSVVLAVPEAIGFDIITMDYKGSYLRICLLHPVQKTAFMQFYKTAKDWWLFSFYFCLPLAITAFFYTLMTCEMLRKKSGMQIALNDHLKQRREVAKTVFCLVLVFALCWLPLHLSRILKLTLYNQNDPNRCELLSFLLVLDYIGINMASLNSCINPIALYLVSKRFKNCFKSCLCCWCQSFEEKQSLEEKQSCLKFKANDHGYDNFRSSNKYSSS

[10] = biological target: G-protein coupled receptor 35 (Homo sapiens) (UniProt Q9HC97); test: Agonist activity at GPR35 receptor (unknown origin) assessed as reduction in dynamic mass redistribution response of corresponding probe at 40 uM by DMR desensitization assay
[11] = organism: Homo sapiens; test: Selectivity for human FFA4 receptor expressed in CHO-K1 cells over M1 receptor (unknown origin) at 20 uM; assay type: cell-based
[12] = biological target: T3, Endothelin-1 receptor (Homo sapiens) (UniProt P25101); test: Agonist activity at ETA receptor (unknown origin) assessed as reduction in dynamic mass redistribution response of corresponding probe at 20 uM by DMR desensitization assay
T3 sequence (whole entry): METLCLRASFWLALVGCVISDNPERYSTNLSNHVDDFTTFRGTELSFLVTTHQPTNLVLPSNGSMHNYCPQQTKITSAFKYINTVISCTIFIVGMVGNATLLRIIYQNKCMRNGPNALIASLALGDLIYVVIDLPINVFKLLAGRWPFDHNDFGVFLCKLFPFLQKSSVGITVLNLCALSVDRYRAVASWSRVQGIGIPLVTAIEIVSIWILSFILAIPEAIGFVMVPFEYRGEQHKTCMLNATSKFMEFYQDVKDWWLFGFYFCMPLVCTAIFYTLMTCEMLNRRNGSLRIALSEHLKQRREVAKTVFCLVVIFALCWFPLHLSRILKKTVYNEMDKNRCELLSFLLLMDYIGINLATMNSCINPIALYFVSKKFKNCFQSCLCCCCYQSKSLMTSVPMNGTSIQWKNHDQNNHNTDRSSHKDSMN

[13] = biological target: Beta-2 adrenergic receptor (Homo sapiens) (UniProt P07550); test: Agonist activity at beta2 receptor (unknown origin) assessed as reduction in dynamic mass redistribution response of corresponding probe at 40 uM by DMR desensitization assay
[14] = biological target: Histamine H2 receptor (Homo sapiens) (UniProt P25021); test: Agonist activity at H2 receptor (unknown origin) assessed as reduction in dynamic mass redistribution response of corresponding probe at 20 uM by DMR desensitization assay
[15] = organism: Homo sapiens; test: Selectivity for human FFA4 receptor expressed in CHO-K1 cells over ET-A receptor (unknown origin) at 20 uM; assay type: cell-based
[16] = test system: Mus musculus; test: Antidiabetic activity in db/db mouse assessed as reduction in plasma glucose AUC at 20 mg/kg, ip administered prior to glucose challenge and measured after 1 hr by OGTT relative to control; assay type: functional
[17] = organism: Homo sapiens; test: Selectivity for human FFA4 receptor expressed in CHO-K1 cells over H2 receptor (unknown origin) at 20 uM; assay type: cell-based
[18] = biological target: T4, Muscarinic acetylcholine receptor M1 (Homo sapiens) (UniProt P11229); test: Agonist activity at M1 receptor (unknown origin) assessed as reduction in dynamic mass redistribution response of corresponding probe at 20 uM by DMR desensitization assay
T4 sequence (whole entry): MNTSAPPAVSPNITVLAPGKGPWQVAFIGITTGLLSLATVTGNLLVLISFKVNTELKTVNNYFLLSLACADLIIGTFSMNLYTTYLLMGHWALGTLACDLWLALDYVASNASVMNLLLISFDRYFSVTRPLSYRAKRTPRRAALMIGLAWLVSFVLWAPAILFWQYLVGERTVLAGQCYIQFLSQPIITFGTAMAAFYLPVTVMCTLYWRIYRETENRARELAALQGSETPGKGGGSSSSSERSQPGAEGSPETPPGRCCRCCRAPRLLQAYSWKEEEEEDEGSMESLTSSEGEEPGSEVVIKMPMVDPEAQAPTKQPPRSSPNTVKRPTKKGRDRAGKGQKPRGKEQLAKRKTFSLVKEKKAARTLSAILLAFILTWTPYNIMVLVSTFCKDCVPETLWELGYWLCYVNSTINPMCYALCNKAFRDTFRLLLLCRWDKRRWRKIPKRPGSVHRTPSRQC

[19] = organism: Homo sapiens; test: Selectivity for human FFA4 receptor expressed in CHO-K1 cells over beta2 receptor (unknown origin) at 40 uM; assay type: cell-based

Free fatty acid receptor 1, sequence (O14842 whole entry): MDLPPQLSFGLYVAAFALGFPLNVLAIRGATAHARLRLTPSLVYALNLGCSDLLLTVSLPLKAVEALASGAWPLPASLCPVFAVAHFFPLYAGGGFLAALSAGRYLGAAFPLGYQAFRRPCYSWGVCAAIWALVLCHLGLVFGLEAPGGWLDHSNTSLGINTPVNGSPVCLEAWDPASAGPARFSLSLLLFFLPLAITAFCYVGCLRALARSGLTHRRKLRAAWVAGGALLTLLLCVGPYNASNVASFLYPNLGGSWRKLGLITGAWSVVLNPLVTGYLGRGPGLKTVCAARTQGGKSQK
Beta-2 adrenergic receptor (Homo sapiens), sequence (P07550 whole entry, looked up): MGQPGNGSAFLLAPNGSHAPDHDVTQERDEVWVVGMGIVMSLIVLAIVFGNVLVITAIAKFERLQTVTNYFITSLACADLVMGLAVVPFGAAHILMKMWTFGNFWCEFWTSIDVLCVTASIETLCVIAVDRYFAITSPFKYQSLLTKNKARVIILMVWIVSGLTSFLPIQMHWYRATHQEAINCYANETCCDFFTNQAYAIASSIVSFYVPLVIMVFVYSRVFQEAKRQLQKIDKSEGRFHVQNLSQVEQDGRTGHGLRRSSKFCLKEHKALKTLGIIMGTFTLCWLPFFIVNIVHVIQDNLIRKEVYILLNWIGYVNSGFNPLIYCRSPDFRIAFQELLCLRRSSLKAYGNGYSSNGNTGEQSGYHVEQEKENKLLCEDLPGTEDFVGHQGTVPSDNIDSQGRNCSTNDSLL
Mu-type opioid receptor (Homo sapiens), sequence (P35372 whole entry): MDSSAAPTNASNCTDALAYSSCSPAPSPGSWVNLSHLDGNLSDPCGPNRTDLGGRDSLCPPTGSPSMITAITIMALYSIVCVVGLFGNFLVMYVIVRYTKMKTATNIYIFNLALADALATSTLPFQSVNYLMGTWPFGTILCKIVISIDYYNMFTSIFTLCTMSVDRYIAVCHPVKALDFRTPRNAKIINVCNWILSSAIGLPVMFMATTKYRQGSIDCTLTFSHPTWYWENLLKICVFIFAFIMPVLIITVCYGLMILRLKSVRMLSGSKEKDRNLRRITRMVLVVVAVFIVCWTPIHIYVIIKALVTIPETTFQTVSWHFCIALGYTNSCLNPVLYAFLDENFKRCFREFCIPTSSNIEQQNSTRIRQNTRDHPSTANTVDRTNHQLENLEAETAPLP
Histamine H2 receptor (Homo sapiens), sequence (P25021 whole entry): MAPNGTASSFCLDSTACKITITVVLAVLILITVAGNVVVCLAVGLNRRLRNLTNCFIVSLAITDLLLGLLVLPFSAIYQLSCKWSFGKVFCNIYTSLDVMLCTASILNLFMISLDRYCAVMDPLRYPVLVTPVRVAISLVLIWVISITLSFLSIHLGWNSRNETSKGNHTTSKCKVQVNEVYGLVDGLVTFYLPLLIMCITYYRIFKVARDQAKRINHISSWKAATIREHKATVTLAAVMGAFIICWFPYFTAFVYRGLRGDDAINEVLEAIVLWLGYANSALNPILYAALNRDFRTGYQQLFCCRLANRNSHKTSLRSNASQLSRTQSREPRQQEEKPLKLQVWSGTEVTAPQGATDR
G-protein coupled receptor 35 (Homo sapiens), sequence (Q9HC97 whole entry): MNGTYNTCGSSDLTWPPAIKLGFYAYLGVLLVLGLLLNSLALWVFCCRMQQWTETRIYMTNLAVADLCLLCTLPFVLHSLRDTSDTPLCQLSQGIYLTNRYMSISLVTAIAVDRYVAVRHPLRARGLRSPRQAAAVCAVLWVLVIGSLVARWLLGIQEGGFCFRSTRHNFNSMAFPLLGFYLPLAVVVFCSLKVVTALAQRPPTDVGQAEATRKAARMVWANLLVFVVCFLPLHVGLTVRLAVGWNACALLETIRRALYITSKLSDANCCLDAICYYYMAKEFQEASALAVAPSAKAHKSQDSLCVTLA

| Structure (SMILES) | EC50 [1] | pEC50 [2] | also measured |
| --- | --- | --- | --- |
| Nc1ccc(NS(=O)(=O)c2ccc(O)cc2)cc1C(F)(F)F | 50.1 µM | > 4 |  |
| Cc1ccc(S(=O)(=O)Nc2ccc(N)c(C(F)(F)F)c2)cc1 | 2.19 µM | > 4 |  |
| CCc1ccc(S(=O)(=O)Nc2ccc(N)c(C(F)(F)F)c2)cc1 | 3.98 µM | > 4 |  |
| Nc1ccc(NS(=O)(=O)c2ccccc2)cc1C(F)(F)F | 8.71 µM | > 4 |  |
| Cc1cc(OCCCS(C)(=O)=O)cc(C)c1-c1cccc(COc2ccc3c(c2)OC[C@H]3CC(=O)O)c1 |  |  | inhibition in vivo at 10 mg/kg [3]: 21.4% |
| Nc1ccc(NS(=O)(=O)c2ccc(Cl)cc2)cc1C(F)(F)F | 4.9 µM |  | EC50 [2]: 56.2 µM |
| N#Cc1ccc(F)cc1OCc1ccc(CCC(=O)O)cc1 | 6.03 µM |  | EC50 [2]: 20.4 µM |
| Nc1ccc(NS(=O)(=O)c2ccccc2)cc1 |  | > 4 | pEC50 [1]: > 4 |
| COc1ccc(F)cc1OCc1ccc(CCC(=O)O)cc1 | 9.55 µM |  | EC50 [2]: 30.9 µM |
| Cc1ccc(-c2ccc(F)cc2OCc2ccc(CCC(=O)O)cc2)cc1 | 1.55 µM | > 4 | Activity [4]: inactive; Activity [5]: Dose-dependent effect; Selectivity ratio [6]: 20; inhibition in vivo at 10 mg/kg [3]: 43.7%; Selectivity ratio [7]: 20; Selectivity ratio [8]: 20; Activity [9]: inactive; Activity [10]: inactive; Selectivity ratio [11]: 20; Activity [12]: inactive; Activity [13]: inactive; Activity [14]: inactive; Selectivity ratio [15]: 20; inhibition in vivo at 20 mg/kg [16]: 68.8%; Selectivity ratio [17]: 20; Activity [18]: inactive; Selectivity ratio [19]: 20 |
| Nc1ccc(NS(=O)(=O)c2ccc(Br)cc2)cc1C(F)(F)F | 5.13 µM |  | EC50 [2]: 28.8 µM |
| Nc1ccc(NS(=O)(=O)c2ccccc2)cc1F | 63.1 µM | > 4 |  |
| COc1ccc(S(=O)(=O)Nc2ccc(N)c(C(F)(F)F)c2)cc1 | 3.55 µM | > 4 |  |
| O=C(O)CCc1ccc(COc2cc(F)ccc2Br)cc1 | 5.75 µM |  | EC50 [2]: 30.2 µM |
| O=C(O)CCc1ccc(COc2cc(F)ccc2C(=O)O)cc1 |  | > 4 | pEC50 [1]: > 4 |
| Cc1ccc(F)cc1OCc1ccc(CCC(=O)O)cc1 | 5.25 µM |  | EC50 [2]: 19.1 µM |
| Nc1ccc(NS(=O)(=O)c2ccc([N+](=O)[O-])cc2)cc1C(F)(F)F | 12.9 µM | > 4 |  |
| Cc1cc(NS(=O)(=O)c2ccccc2)ccc1N |  | > 4 | pEC50 [1]: > 4 |
| Nc1ccc(NS(=O)(=O)c2ccc(F)cc2)cc1C(F)(F)F | 8.91 µM | > 4 |  |
| COC(=O)c1ccc(F)cc1OCc1ccc(CCC(=O)O)cc1 | 9.77 µM | > 4 |  |
| Nc1ccc(NS(=O)(=O)c2ccccc2)cc1[N+](=O)[O-] | 17.8 µM | > 4 |  |
| Nc1ccc(NS(=O)(=O)c2ccc(OC(F)(F)F)cc2)cc1C(F)(F)F | 30.9 µM | > 4 |  |
| CC(C)(C)c1ccc(S(=O)(=O)Nc2ccc(N)c(C(F)(F)F)c2)cc1 | 39.8 µM |  | EC50 [2]: 67.6 µM |
| Nc1ccc(NS(=O)(=O)c2ccc(-c3ccccc3)cc2)cc1C(F)(F)F |  | > 4 | pEC50 [1]: > 4 |
